Laboratory results taken from ChEMBL document CHEMBL4507259 (2021).

Tests used:
[1] = target: Cannabinoid receptor 2 (Homo sapiens) (UniProt P34972); test: CB2 (h) CEREP ligand profiling; details: filed as agonist, Compound concentration 10.0 uM
[2] = target: Histamine H2 receptor (Homo sapiens) (UniProt P25021); test: H2 (h) CEREP ligand profiling; details: filed as antagonist, Compound concentration 10.0 uM
[3] = target: Tyrosine-protein kinase ABL1 (Homo sapiens) (UniProt P00519); details: Compound concentration 1000.0 nM
[4] = target: Tyrosine-protein kinase ABL2 (Homo sapiens) (UniProt P42684); details: Compound concentration 1000.0 nM
[5] = target: Atypical kinase COQ8B, mitochondrial (Homo sapiens) (UniProt Q96D53); details: Compound concentration 1000.0 nM
[6] = target: Bone morphogenetic protein receptor type-1A (Homo sapiens) (UniProt P36894); details: Compound concentration 1000.0 nM
[7] = target: Cyclin-dependent kinase 5 (Homo sapiens) (UniProt Q00535); details: Compound concentration 1000.0 nM
Chain of Cyclin-dependent kinase 5 (Homo sapiens) (Q00535 whole entry, looked up): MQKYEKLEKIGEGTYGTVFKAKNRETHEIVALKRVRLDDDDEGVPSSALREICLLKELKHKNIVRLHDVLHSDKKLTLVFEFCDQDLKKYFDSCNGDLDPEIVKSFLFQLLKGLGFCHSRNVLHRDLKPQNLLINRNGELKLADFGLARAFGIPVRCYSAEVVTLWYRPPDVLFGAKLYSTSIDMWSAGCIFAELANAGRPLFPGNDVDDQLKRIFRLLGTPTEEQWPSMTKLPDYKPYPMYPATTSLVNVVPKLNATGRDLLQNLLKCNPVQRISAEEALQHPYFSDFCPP

[8] = target: Cyclin-dependent kinase-like 1 (Homo sapiens) (UniProt Q00532); details: Compound concentration 1000.0 nM
[9] = target: Casein kinase I isoform alpha (Homo sapiens) (UniProt P48729); details: Compound concentration 1000.0 nM
Chain of Casein kinase I isoform alpha (Homo sapiens) (P48729 2-337 limits assumed): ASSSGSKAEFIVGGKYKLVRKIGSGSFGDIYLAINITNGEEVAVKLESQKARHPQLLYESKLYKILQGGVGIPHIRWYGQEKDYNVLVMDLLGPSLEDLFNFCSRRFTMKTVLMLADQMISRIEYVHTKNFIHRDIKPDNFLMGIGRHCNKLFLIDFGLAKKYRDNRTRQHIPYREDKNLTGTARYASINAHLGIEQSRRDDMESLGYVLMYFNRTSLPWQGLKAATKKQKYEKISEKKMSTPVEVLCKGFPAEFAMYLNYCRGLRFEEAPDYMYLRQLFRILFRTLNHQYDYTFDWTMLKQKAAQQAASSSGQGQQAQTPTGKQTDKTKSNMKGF

[10] = target: Casein kinase I isoform alpha-like (Homo sapiens) (UniProt Q8N752); details: Compound concentration 1000.0 nM
[11] = target: Serine/threonine-protein kinase DCLK2 (Homo sapiens) (UniProt Q8N568); details: Compound concentration 1000.0 nM
Chain of Serine/threonine-protein kinase DCLK2 (Homo sapiens) (Q8N568 whole entry): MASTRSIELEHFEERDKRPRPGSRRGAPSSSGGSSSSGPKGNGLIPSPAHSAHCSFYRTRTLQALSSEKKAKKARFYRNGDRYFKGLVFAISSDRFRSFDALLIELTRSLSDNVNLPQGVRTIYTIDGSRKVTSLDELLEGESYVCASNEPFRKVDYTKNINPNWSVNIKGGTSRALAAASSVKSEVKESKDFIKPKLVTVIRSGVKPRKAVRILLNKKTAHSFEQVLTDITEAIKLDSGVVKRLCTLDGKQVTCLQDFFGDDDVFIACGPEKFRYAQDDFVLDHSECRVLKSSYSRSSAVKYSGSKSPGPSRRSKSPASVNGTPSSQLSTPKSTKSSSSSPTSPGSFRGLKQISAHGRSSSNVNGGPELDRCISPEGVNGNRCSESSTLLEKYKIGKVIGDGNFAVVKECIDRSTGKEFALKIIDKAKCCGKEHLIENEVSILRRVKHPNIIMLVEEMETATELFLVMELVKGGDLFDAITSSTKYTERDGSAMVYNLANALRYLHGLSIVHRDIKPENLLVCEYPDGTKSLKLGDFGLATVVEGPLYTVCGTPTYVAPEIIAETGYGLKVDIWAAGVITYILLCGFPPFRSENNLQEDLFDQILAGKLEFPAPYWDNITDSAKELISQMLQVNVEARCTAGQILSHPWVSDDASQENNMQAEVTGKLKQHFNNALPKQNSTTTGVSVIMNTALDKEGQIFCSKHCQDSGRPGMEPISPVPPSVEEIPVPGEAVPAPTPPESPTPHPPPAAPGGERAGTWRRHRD

[12] = target: Ephrin type-A receptor 5 (Homo sapiens) (UniProt P54756); details: Compound concentration 1000.0 nM
[13] = target: Ephrin type-A receptor 7 (Homo sapiens) (UniProt Q15375); details: Compound concentration 1000.0 nM
Chain of Ephrin type-A receptor 7 (Homo sapiens) (Q15375 28-998 limits assumed): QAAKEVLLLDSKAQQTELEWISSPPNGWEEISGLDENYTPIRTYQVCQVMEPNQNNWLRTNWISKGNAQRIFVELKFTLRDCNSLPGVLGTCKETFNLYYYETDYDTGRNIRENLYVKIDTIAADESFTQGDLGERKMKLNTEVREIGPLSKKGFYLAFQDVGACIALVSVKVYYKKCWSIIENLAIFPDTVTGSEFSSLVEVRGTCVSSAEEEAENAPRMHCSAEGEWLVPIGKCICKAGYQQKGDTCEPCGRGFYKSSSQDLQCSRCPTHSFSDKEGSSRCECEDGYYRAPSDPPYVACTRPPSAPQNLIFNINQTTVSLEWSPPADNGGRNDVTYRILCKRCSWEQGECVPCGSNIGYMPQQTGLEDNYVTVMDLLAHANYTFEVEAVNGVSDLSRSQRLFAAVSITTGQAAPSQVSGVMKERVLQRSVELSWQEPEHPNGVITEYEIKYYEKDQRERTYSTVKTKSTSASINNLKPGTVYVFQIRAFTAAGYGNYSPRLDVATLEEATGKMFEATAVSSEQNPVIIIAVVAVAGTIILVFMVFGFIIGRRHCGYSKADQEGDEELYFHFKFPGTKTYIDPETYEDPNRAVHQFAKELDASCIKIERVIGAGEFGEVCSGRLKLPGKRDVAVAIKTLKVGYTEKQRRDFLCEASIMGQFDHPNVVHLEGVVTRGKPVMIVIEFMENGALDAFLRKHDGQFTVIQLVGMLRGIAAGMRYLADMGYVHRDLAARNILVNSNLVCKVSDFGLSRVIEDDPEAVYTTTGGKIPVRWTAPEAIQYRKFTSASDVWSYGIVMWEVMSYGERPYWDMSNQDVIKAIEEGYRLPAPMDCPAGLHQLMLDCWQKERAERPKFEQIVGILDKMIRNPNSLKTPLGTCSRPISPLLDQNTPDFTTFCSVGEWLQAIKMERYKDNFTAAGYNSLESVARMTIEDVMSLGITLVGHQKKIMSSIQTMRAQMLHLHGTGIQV

[14] = test system: Receptor-type tyrosine-protein kinase FLT3 (Homo sapiens), P36888 [UNDEFINED MUTATION]; details: Compound concentration 1000.0 nM
[15] = test system: Receptor-type tyrosine-protein kinase FLT3 (Homo sapiens), P36888 [N841I]; details: Compound concentration 1000.0 nM
[16] = test system: Receptor-type tyrosine-protein kinase FLT3 (Homo sapiens), P36888 [R834Q]; details: Compound concentration 1000.0 nM
[17] = target: Vascular endothelial growth factor receptor 3 (Homo sapiens) (UniProt P35916); details: Compound concentration 1000.0 nM
[18] = target: Beta-adrenergic receptor kinase 1 (Homo sapiens) (UniProt P25098); details: Compound concentration 1000.0 nM
[19] = target: Glycogen synthase kinase-3 beta (Homo sapiens) (UniProt P49841); details: Compound concentration 1000.0 nM
[20] = target: Interleukin-1 receptor-associated kinase 1 (Homo sapiens) (UniProt P51617); details: Compound concentration 1000.0 nM
[21] = test system: Mast/stem cell growth factor receptor Kit (Homo sapiens), P10721 [A829P]; details: Compound concentration 1000.0 nM
Chain of Mast/stem cell growth factor receptor Kit (Homo sapiens), P10721 [A829P] (P10721 whole entry A829P): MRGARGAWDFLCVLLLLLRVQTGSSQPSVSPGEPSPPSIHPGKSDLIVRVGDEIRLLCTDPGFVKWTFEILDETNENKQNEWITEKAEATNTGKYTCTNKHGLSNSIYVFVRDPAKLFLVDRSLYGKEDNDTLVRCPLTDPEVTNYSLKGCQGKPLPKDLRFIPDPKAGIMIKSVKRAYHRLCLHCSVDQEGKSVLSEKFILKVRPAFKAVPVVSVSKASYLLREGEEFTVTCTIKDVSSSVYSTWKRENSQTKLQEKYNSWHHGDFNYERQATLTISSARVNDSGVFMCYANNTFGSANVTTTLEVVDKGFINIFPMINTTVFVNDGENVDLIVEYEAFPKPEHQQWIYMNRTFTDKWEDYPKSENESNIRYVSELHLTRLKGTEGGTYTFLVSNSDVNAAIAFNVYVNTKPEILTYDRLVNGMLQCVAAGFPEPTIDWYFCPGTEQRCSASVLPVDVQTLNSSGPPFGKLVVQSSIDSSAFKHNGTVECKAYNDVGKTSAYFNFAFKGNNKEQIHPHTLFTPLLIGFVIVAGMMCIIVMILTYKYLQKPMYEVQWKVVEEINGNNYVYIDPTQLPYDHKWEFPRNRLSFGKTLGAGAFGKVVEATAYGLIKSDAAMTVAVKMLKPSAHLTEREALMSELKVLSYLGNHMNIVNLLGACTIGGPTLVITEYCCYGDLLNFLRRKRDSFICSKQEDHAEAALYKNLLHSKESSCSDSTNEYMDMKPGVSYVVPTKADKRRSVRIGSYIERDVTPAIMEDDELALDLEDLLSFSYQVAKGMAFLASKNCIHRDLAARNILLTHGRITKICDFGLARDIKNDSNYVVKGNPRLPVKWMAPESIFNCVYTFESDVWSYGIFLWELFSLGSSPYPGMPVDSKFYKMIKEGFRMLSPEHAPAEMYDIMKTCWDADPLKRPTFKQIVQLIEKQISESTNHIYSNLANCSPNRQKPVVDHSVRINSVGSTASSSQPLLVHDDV

[22] = test system: Mast/stem cell growth factor receptor Kit (Homo sapiens), P10721 [L576P]; details: Compound concentration 1000.0 nM
[23] = target: Mast/stem cell growth factor receptor Kit (Homo sapiens) (UniProt P10721); details: Compound concentration 1000.0 nM
[24] = target: Dual specificity mitogen-activated protein kinase kinase 4 (Homo sapiens) (UniProt P45985); details: Compound concentration 1000.0 nM
[25] = target: Serine/threonine-protein kinase 4 (Homo sapiens) (UniProt Q13043); details: Compound concentration 1000.0 nM
[26] = target: Serine/threonine-protein kinase OSR1 (Homo sapiens) (UniProt O95747); details: Compound concentration 1000.0 nM
[27] = target: Cyclin-dependent kinase 17 (Homo sapiens) (UniProt Q00537); details: Compound concentration 1000.0 nM
[28] = target: Calcium-dependent protein kinase 1 (Plasmodium falciparum) (UniProt P62344); details: Compound concentration 1000.0 nM
[29] = test system: Phosphatidylinositol 4,5-bisphosphate 3-kinase catalytic subunit alpha isoform (Homo sapiens), P42336 [I800L]; details: Compound concentration 1000.0 nM
[30] = target: Phosphatidylinositol 4-kinase beta (Homo sapiens) (UniProt Q9UBF8); details: Compound concentration 1000.0 nM
[31] = target: Protein kinase C delta type (Homo sapiens) (UniProt Q05655); details: Compound concentration 1000.0 nM
[32] = test system: Proto-oncogene tyrosine-protein kinase receptor Ret (Homo sapiens), P07949 [M918T]; details: Compound concentration 1000.0 nM
Chain of Proto-oncogene tyrosine-protein kinase receptor Ret (Homo sapiens), P07949 [M918T] (P07949 whole entry M918T): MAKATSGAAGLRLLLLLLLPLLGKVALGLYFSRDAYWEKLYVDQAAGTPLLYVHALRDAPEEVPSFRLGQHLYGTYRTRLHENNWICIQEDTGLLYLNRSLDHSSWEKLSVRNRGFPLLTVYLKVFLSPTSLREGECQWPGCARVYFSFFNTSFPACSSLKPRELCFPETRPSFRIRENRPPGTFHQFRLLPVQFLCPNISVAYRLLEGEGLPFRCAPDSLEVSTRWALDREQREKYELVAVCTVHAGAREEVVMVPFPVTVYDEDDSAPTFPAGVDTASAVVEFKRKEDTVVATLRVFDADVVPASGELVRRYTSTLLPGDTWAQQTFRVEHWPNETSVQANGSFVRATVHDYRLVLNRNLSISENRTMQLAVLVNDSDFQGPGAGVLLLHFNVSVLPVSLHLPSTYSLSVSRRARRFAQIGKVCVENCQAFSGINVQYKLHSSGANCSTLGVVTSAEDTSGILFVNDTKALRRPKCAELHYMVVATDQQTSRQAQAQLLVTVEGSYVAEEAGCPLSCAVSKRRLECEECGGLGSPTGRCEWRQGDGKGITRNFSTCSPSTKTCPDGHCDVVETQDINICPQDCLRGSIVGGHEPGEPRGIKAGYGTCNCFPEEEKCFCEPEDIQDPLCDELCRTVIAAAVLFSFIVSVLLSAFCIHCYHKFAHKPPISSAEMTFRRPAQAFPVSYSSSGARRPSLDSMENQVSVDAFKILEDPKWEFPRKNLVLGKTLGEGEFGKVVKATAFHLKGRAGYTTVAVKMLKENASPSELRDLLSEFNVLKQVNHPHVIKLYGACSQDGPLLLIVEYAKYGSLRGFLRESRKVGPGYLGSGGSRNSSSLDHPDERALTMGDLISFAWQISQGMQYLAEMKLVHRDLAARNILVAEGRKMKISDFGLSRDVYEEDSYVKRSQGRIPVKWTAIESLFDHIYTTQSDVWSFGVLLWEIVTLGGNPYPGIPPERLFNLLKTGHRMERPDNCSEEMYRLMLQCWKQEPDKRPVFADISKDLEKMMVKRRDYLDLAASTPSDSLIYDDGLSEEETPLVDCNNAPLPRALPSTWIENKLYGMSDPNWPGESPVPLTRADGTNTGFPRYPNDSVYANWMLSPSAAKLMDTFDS

[33] = target: Serine/threonine-protein kinase RIO1 (Homo sapiens) (UniProt Q9BRS2); details: Compound concentration 1000.0 nM
[34] = target: Serine/threonine-protein kinase RIO2 (Homo sapiens) (UniProt Q9BVS4); details: Compound concentration 1000.0 nM
[35] = target: Rho-associated protein kinase 1 (Homo sapiens) (UniProt Q13464); details: Compound concentration 1000.0 nM
[36] = target: Ribosomal protein S6 kinase alpha-4 (Homo sapiens) (UniProt O75676); details: Compound concentration 1000.0 nM
[37] = target: Ribosomal protein S6 kinase alpha-1 (Homo sapiens) (UniProt Q15418); details: Compound concentration 1000.0 nM
[38] = target: Serine/threonine-protein kinase Sgk3 (Homo sapiens) (UniProt Q96BR1); details: Compound concentration 1000.0 nM
Chain of Serine/threonine-protein kinase Sgk3 (Homo sapiens) (Q96BR1 whole entry): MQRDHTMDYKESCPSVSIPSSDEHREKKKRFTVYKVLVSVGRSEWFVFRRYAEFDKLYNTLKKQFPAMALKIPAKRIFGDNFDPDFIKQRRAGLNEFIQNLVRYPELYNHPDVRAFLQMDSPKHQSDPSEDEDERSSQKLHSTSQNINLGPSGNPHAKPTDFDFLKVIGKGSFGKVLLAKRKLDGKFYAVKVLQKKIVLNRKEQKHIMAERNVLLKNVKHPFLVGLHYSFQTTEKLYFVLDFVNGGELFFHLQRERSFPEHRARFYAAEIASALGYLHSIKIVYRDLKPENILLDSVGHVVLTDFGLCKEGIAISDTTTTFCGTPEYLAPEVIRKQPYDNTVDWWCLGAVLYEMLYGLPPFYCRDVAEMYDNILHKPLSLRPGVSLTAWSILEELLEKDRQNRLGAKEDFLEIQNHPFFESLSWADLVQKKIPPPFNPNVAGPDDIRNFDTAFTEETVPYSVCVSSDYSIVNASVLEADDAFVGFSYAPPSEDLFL

[39] = target: Serine/threonine-protein kinase 16 (Homo sapiens) (UniProt O75716); details: Compound concentration 1000.0 nM
[40] = target: STE20/SPS1-related proline-alanine-rich protein kinase (Homo sapiens) (UniProt Q9UEW8); details: Compound concentration 1000.0 nM
[41] = target: Tyrosine-protein kinase SYK (Homo sapiens) (UniProt P43405); details: Compound concentration 1000.0 nM
[42] = target: Non-receptor tyrosine-protein kinase TYK2 (Homo sapiens) (UniProt P29597); details: Compound concentration 1000.0 nM
[43] = target: Serine/threonine-protein kinase ULK3 (Homo sapiens) (UniProt Q6PHR2); details: Compound concentration 1000.0 nM
[44] = target: Serine/threonine-protein kinase WNK4 (Homo sapiens) (UniProt Q96J92); details: Compound concentration 1000.0 nM
[45] = target: Sigma intracellular receptor 2 (Homo sapiens, UniProt Q5BJF2); details: Compound concentration 10.0 uM

Work on `CNC(=O)Nc1ccc2c(c1)CC[C@@]21OC(=O)N(CC(=O)N(Cc2ccc(F)cc2)[C@@H](C)C(F)(F)F)C1=O` [A-485] yielded an inhibition [1] of 67%, an inhibition [2] of -9% and a residual activity [3] of 84%. For the same compound, the residual activity [4] was 88%, the residual activity [5] was 100% and the residual activity [6] was 91%. The residual activity [7] was 84%, the residual activity [8] was 86% and the residual activity [9] was 93%. The residual activity [10] was 88%, the residual activity [11] was 70% and the residual activity [12] was 96%. The residual activity [13] was 88%, the residual activity [14] was 87% and the residual activity [15] was 100%. The residual activity [16] was 92%, the residual activity [17] was 89% and the residual activity [18] was 74%. For the same compound, the residual activity [19] was 82%, the residual activity [20] was 71% and the residual activity [21] was 79%. It also gave a residual activity [22] of 100%, a residual activity [23] of 97% and a residual activity [24] of 100%. The residual activity [25] was 100%, the residual activity [26] was 80% and the residual activity [27] was 96%. For the same compound, the residual activity [28] was 83%, the residual activity [29] was 83% and the residual activity [30] was 74%. The residual activity [31] was 76%, the residual activity [32] was 95% and the residual activity [33] was 100%. For the same compound, the residual activity [34] was 67%, the residual activity [35] was 72% and the residual activity [36] was 100%. The residual activity [37] was 88%, the residual activity [38] was 68% and the residual activity [39] was 84%. The residual activity [40] was 100%, the residual activity [41] was 70% and the residual activity [42] was 91%. For the same compound, the residual activity [43] was 90%, the residual activity [44] was 73% and the inhibition [45] was 50%.
Compound `CNC(=O)Nc1ccc2c(c1)[C@@]1(CC2)OC(=O)N(CC(=O)N(Cc2ccc(F)cc2)[C@@H](C)C(F)(F)F)C1=O` [A-486] has an inhibition [1] of 4%, an inhibition [2] of 6% and a residual activity [3] of 93%. For the same compound, the residual activity [4] was 84%, the residual activity [5] was 95% and the residual activity [6] was 100%. It also gave a residual activity [7] of 79%, a residual activity [8] of 91% and a residual activity [9] of 83%. For the same compound, the residual activity [10] was 100%, the residual activity [11] was 89% and the residual activity [12] was 94%. The residual activity [13] was 100%, the residual activity [14] was 87% and the residual activity [15] was 100%. For the same compound, the residual activity [16] was 96%, the residual activity [17] was 100% and the residual activity [18] was 76%. It also gave a residual activity [19] of 95%, a residual activity [20] of 88% and a residual activity [21] of 100%. For the same compound, the residual activity [22] was 81%, the residual activity [23] was 89% and the residual activity [24] was 95%. It also gave a residual activity [25] of 100%, a residual activity [26] of 65% and a residual activity [27] of 88%. For the same compound, the residual activity [28] was 93%, the residual activity [29] was 63% and the residual activity [30] was 71%. For the same compound, the residual activity [31] was 75%, the residual activity [32] was 100% and the residual activity [33] was 100%. It also gave a residual activity [34] of 83%, a residual activity [35] of 81% and a residual activity [36] of 100%. It also gave a residual activity [37] of 100%, a residual activity [38] of 72% and a residual activity [39] of 99%. It also gave a residual activity [40] of 100%, a residual activity [41] of 82% and a residual activity [42] of 92%. For the same compound, the residual activity [43] was 55%, the residual activity [44] was 100% and the inhibition [45] was 55.5%.
